Values quoted from earlier work as cited in patent US7799817B2, “Compositions and methods for sleep regulation” (LifeScape BioSciences Inc, priority 2004, dated 2010).
Where two headings read alike, the source gives them in different places.

Experiments:
jet lag [1] = details: for mean global jet lag score: 0=no jet lag, 100=extreme jet lag
[2] = adult human
jet lag [3] = test system: jet lag

COc1ccc2[nH]cc(CCNC(C)=O)c2c1 [melatonin, N-acetyl-5-methoxytryptamine]
mean global jet lag score (jet lag [1]; eastward flights, four trials combined, placebo 51): 31
jet lag after melatonin administration (jet lag [1]; eight of ten randomized, placebo-controlled trials): less jet lag
mean global jet lag score (jet lag [1]; westward flights, two RCTs, placebo 41): 22
half-life [2]: approximately 45 minutes
effectiveness of lower dose for symptoms of jet lag unrelated to sleep (jet lag [3]; 0.5 mg fast release versus 5 mg): almost as effective as the higher dose
effect of higher dose on sleep quality and sleep latency (jet lag [3]; 5 mg versus 0.5 mg fast release): greater effect on sleep quality and sleep latency than the lower dose
effectiveness of slow release form (jet lag [3]; slow release 2 mg versus 5 mg or 0.5 mg fast release): less effective than either 5 mg or 0.5 mg (fast release)
